Laboratory results from ChEMBL document CHEMBL1240317, “Probing cell-division phenotype space and Polo-like kinase function using small molecules” (Nat Chem Biol, 2006).
Blank lines part the entries; values can stand above or below the molecule they belong to. Calls of active or inactive are those of the source. Unless noted, the calls are words filed in the database; no cut-off is given here.

Key:
[1] = molecular target: T1, Serine/threonine-protein kinase PLK1 (Homo sapiens, UniProt P53350); assay: Inhibition of recombinant polo-like kinase 1 activity by SDS-PAGE
T1 sequence (P53350 whole entry): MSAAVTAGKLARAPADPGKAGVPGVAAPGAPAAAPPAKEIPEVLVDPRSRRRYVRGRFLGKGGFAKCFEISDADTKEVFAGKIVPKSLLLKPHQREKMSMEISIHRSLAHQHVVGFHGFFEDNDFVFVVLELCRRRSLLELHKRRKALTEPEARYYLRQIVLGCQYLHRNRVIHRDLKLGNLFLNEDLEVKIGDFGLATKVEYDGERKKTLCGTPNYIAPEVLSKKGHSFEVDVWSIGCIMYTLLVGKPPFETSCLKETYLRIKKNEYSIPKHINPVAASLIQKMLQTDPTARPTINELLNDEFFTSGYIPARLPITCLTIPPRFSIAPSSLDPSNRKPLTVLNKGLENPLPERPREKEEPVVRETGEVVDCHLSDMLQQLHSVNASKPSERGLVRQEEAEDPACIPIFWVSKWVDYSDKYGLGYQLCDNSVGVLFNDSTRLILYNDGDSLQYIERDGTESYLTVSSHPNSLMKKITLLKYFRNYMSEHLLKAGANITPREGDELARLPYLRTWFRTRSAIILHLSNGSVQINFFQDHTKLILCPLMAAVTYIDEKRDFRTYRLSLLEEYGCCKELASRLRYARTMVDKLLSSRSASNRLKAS

PtK2 [2] = assay: Inhibition of polo-like kinase 1 activity in rat kangaroo PtK2 cells expressing GFP-labeled alpha-tubulin assessed as interkinetochore distance at 20 uM after 45 mins; assay type: cell-based; conditions: Potorous tridactylus
U2OS [3] = assay: Induction of monopolar spindles and reduction in gamma-tubulin at the centrosomes in human U2OS cells at 50 uM after 4 hrs by immunofluorescence; assay type: functional, cell-based
PtK2 [4] = assay: Antimitotic activity in rat kangaroo PtK2 cells expressing GFP-labeled alpha-tubulin in presence of monastrol assessed as cells remained in mitosis at 20 uM after 90 mins by phase-contrast microscopy; assay type: functional, cell-based; conditions: Potorous tridactylus
U2OS [5] = assay: Induction of monopolar spindles and reduction in gamma-tubulin at the centrosomes in human U2OS cells at 25 uM after 4 hrs by immunofluorescence; assay type: functional, cell-based
PtK2 [6] = assay: Inhibition of polo-like kinase 1 activity in rat kangaroo PtK2 cells expressing GFP-labeled alpha-tubulin assessed as phosphorylation of Cdc25c at centrosomes after 1 hr by quantitative immunofluorescence; assay type: cell-based; conditions: Potorous tridactylus
PtK2 [7] = assay: Inhibition of polo-like kinase 1 activity in rat kangaroo PtK2 cells expressing GFP-labeled alpha-tubulin assessed as phosphorylation of Cdc25c at 20 uM after 1 hr by quantitative immunofluorescence; assay type: cell-based; conditions: Potorous tridactylus
PtK2 [8] = assay: Induction of mitotic index in rat kangaroo PtK2 cells expressing GFP-labeled alpha-tubulin after 4 hrs; assay type: functional, cell-based; conditions: Potorous tridactylus
PtK2 [9] = assay: Inhibition of Aurora kinase activity in rat kangaroo PtK2 cells assessed as histone H3 phosphorylation at 25 uM after 1 hr by quantitative fluorescence; assay type: cell-based; conditions: Potorous tridactylus
PtK2 [10] = assay: Induction of monopolar mitotic spindles in rat kangaroo PtK2 cells expressing GFP-labeled alpha-tubulin after 4 hrs; assay type: functional, cell-based; conditions: Potorous tridactylus
PtK2 [11] = assay: Induction of monopolar mitotic spindles in rat kangaroo PtK2 cells expressing GFP-labeled alpha-tubulin at 20 uM after 4 hrs; assay type: functional, cell-based; conditions: Potorous tridactylus
BSC-1 [12] = assay: Induction of monopolar mitotic spindles in african green monkey BSC1 cells assessed as percentage of monopolar cells with two centrosomes at 20 uM after 4 hrs; assay type: functional, cell-based; conditions: Chlorocebus aethiops
BSC-1 [13] = assay: Antimitotic activity against african green monkey BSC1 cells assessed as induction of monopolar spindles by immunofluorescence microscopy; assay type: functional, cell-based; conditions: Chlorocebus aethiops
BSC-1 [14] = assay: Antimitotic activity against african green monkey BSC1 cells assessed as induction of normal spindles at 2.5 uM by immunofluorescence microscopy; assay type: functional, cell-based; conditions: Chlorocebus aethiops
BSC-1 [15] = assay: Induction of monopolar mitotic spindles in african green monkey BSC1 cells assessed as kinesin-5 (Eg5) inhibition at 100 uM after 4 hrs; assay type: functional, cell-based; conditions: Chlorocebus aethiops
BSC-1 [16] = assay: Induction of deffects in mitotic spindle in african green monkey BSC1 cells at 20 uM after 4 hrs by immunocytochemistry; assay type: functional, cell-based; conditions: Chlorocebus aethiops
BSC-1 [17] = assay: Antimitotic activity against african green monkey BSC1 cells assessed as induction of monopolar spindles and two separated astral microtubule array at 20 uM by immunofluorescence microscopy; assay type: functional, cell-based; conditions: Chlorocebus aethiops
PtK2 [18] = assay: Inhibition of polo-like kinase 1 activity in rat kangaroo PtK2 cells expressing GFP-labeled alpha-tubulin assessed as interkinetochore distance at 33 uM after 45 mins; assay type: cell-based; conditions: Potorous tridactylus
BSC-1 [19] = assay: Antimitotic activity against african green monkey BSC1 cells assessed as induction of bipolar spindles with decrease in pole to pole distance at 20 uM by immunofluorescence microscopy; assay type: functional, cell-based; conditions: Chlorocebus aethiops
BSC-1 [20] = assay: Induction of reduced mitotic index in african green monkey BSC1 cells at 20 uM after 4 hrs by immunocytochemistry; assay type: functional, cell-based; conditions: Chlorocebus aethiops
BSC-1 [21] = assay: Antimitotic activity against african green monkey BSC1 cells assessed as induction of monopolar spindles and spindle pole deffects at 20 uM by immunofluorescence microscopy; assay type: functional, cell-based; conditions: Chlorocebus aethiops
PtK2 [22] = assay: Inhibition of polo-like kinase 1 activity in rat kangaroo PtK2 cells expressing GFP-labeled alpha-tubulin assessed as interkinetochore distance at 6 uM after 45 mins; assay type: cell-based; conditions: Potorous tridactylus
PtK2 [23] = assay: Inhibition of Aurora kinase activity in rat kangaroo PtK2 cells assessed as histone H3 phosphorylation at 6.3 uM after 1 hr by quantitative fluorescence; assay type: cell-based; conditions: Potorous tridactylus
PtK2 [24] = assay: Change in microtubule dynamics in rat kangaroo PtK2 cells expressing GFP-labeled alpha-tubulin by replacing with PLK inhibitor- free medium; assay type: functional, cell-based; conditions: Potorous tridactylus
PtK2 [25] = assay: Inhibition of polo-like kinase 1 activity in rat kangaroo PtK2 cells expressing GFP-labeled alpha-tubulin assessed as V-shaped chromosome at 20 uM by spinning disk confocal microscopy in presence of 20 uM MG132; assay type: cell-based; conditions: Potorous tridactylus
PtK2 [26] = assay: Inhibition of polo-like kinase 1 activity in rat kangaroo PtK2 cells expressing GFP-labeled alpha-tubulin assessed as phosphorylation of Cdc25c at 6.3 uM after 1 hr by quantitative immunofluorescence; assay type: cell-based; conditions: Potorous tridactylus
[27] = molecular target: T1, Serine/threonine-protein kinase PLK1; assay: Inhibition of recombinant polo-like kinase 1 activity at 100 nM by SDS-PAGE
PtK2 [28] = assay: Antimitotic activity in rat kangaroo PtK2 cells expressing GFP-labeled alpha-tubulin in presence of monastrol assessed as cells remained in mitosis at 6 uM after 90 mins by phase-contrast microscopy; assay type: functional, cell-based; conditions: Potorous tridactylus
BSC-1 [29] = assay: Antimitotic activity against african green monkey BSC1 cells assessed as induction of monopolar spindles at 20 uM by immunofluorescence microscopy; assay type: functional, cell-based; conditions: Chlorocebus aethiops
BSC-1 [30] = assay: Antimitotic activity against african green monkey BSC1 cells assessed as induction of sphere like organization at 2.5 uM by immunofluorescence microscopy; assay type: functional, cell-based; conditions: Chlorocebus aethiops
PtK2 [31] = assay: Inhibition of polo-like kinase 1 activity in rat kangaroo PtK2 cells expressing GFP-labeled alpha-tubulin assessed as shortening of chromosome associated microtubule fibres at 20 uM by spinning disk confocal microscopy in presence of 20 uM MG132; assay type: cell-based; conditions: Potorous tridactylus
PtK2 [32] = assay: Inhibition of polo-like kinase 1 activity in rat kangaroo PtK2 cells expressing GFP-labeled alpha-tubulin assessed as stable microtubule bundles at 6.3 uM at 20 sec time interval for 5 min by spinning disk confocal microscopy; assay type: cell-based; conditions: Potorous tridactylus
PtK2 [33] = assay: Inhibition of polo-like kinase 1 activity in rat kangaroo PtK2 cells expressing GFP-labeled alpha-tubulin assessed as shortening of chromosome associated microtubule fibres at 6.3 uM by spinning disk confocal microscopy in presence of 20 uM MG132; assay type: cell-based; conditions: Potorous tridactylus
BSC-1 [34] = assay: Induction of monopolar mitotic spindles in african green monkey BSC1 cells assessed as percentage of monopolar cells with two centrosomes at 5 uM after 4 hrs; assay type: functional, cell-based; conditions: Chlorocebus aethiops
PtK2 [35] = assay: Inhibition of polo-like kinase 1 activity in rat kangaroo PtK2 cells expressing GFP-labeled alpha-tubulin assessed as V-shaped chromosome at 6.3 uM by spinning disk confocal microscopy in presence of 20 uM MG132; assay type: cell-based; conditions: Potorous tridactylus
PtK2 [36] = assay: Induction of monopolar mitotic spindles in rat kangaroo PtK2 cells expressing GFP-labeled alpha-tubulin at 6.3 uM after 4 hrs; assay type: functional, cell-based; conditions: Potorous tridactylus

SMILES: COC(=O)Nc1nc2cc(C(=O)c3cccs3)ccc2[nH]1
interkinetochore distance (PtK2 [18]): 1.4 µm

SMILES: c1cc(Nc2ccc3c(c2)OCO3)nc(Nc2ccc3c(c2)CCC3)n1
Activity (BSC-1 [16]): Active
Activity (BSC-1 [19]): Active

SMILES: CCCCNc1nc(Nc2ccc(N3CCN(C)CC3)cc2)ncc1[N+](=O)[O-]
Activity (BSC-1 [20]): Active
Activity (BSC-1 [21]): Active

The next lines start with results.

IC50 [1]: 8 µM
SMILES: N#Cc1cc([N+](=O)[O-])c2sc(C(N)=O)[n+]([O-])c2c1
interkinetochore distance (PtK2 [2]): 2.3 µm
Activity (U2OS [3]): Active
Activity (PtK2 [4]): Active
Activity (U2OS [5]): Active
Activity (PtK2 [6]): Dose-dependent effect
inhibition (PtK2 [7]): Active
Activity (PtK2 [8]): Dose-dependent effect
inhibition (PtK2 [9]): 20%
Activity (PtK2 [10]): Dose-dependent effect
Activity (PtK2 [11]): Active

EC50 (BSC-1 [13]): 30 µM
SMILES: c1cc(Nc2ccc3c(c2)CCC3)nc(Nc2ccc3ncsc3c2)n1
Activity (BSC-1 [12]): Active
Activity (BSC-1 [14]): Active
Activity (BSC-1 [15]): Active
Activity (BSC-1 [16]): Active
Activity (BSC-1 [17]): Active

IC50 [1]: 0.9 µM
EC50 (BSC-1 [13]): 5 µM
inhibition [27]: inactive
SMILES: CC(=O)Nc1ccc(Nc2ncc([N+](=O)[O-])c(Nc3ccccc3C(=O)c3ccccc3)n2)cc1
interkinetochore distance (PtK2 [22]): 1.9 µm
inhibition (PtK2 [23]): 20%
Activity (U2OS [3]): Active
Activity (PtK2 [24]): Active
inhibition (PtK2 [25]): Active
inhibition (PtK2 [26]): Active
Activity (PtK2 [28]): Active
Activity (BSC-1 [29]): Active
Activity (BSC-1 [15]): Active
Activity (BSC-1 [20]): Active
Activity (U2OS [5]): Active
Activity (BSC-1 [30]): Active
inhibition (PtK2 [31]): Active
inhibition (PtK2 [32]): Active
Activity (PtK2 [6]): Dose-dependent effect
inhibition (PtK2 [33]): Active
Activity (BSC-1 [34]): Active
inhibition (PtK2 [35]): Active
Activity (PtK2 [8]): Dose-dependent effect
Activity (PtK2 [36]): Active
Activity (PtK2 [10]): Dose-dependent effect
